Assay results published in patent US20100249402A1, “NOVEL BENZAMIDINE DERIVATIVES, PROCESS FOR THE PREPARATION THEREOF AND PHARMACEUTICAL COMPOSITION FOR PREVENTING OR TREATING OSTEPOROSIS COMPRISING THE SAME” (DONG WHA PHARMACEUTICAL CO. LTD., priority 2007, published 2010).
Read-outs that look alike come from different tables or passages of the source.

Key:
calvaria = assay: Cytotoxicity test (MTT), calvaria; type: cell-based; details: 10^−6 M, cultured for 72 hrs, in comparison with the control group
Description: (§1) The cytotoxic effect of the benzamidine derivative of the present invention was evaluated by carrying out the experiment described below.
(§2) The test substance was diluted in an appropriate solvent at a concentration of 10^−2 M. This substance was diluted in an appropriate culture medium for the cells used in the cytotoxicity test to a concentration of 10^−6M, and loaded into a 96-well plate in 100 μl per well. The cell lines to be used in the cytotoxicity test were plated on a 96-well plate in a dose of 1.0×10^4 cell/100 μl per well, and cultured for 72 hrs. 25 μl of MTT[3-(4,5-dimethyl-2-thiazolyl)-2,5-diphenyl-2H-tetrazolium bromide] dissolved in PBS (2 mg/mL) were added before 4 hrs of the end of culture. After completion of the reaction, the plates were centrifuged, the medium was discarded and 100 μl of DMSO was added to dissolve formazan. Finally, the absorbance of the developed plates was measured at 540 nm. The survival rates of the cells were expressed as % concentration values in comparison with the control group.

HOS = assay: Cytotoxicity test (MTT), HOS; type: cell-based; details: 10^−6 M, cultured for 72 hrs, in comparison with the control group
Description: as §1, §2

[1] = tested on: osteoclast differentiation; assay: Inhibitory effects on osteoclast differentiation (bone marrow cell/osteoblast co-culture, TRAP staining); type: cell-based, mice; details: Mus musculus, Osteoclast, 168 h, read-out: Inhibition of osteoclast differentiation (%)
Description: The effect of the benzamidine derivative of the present invention on osteoclast formation and differentiation process was evaluated via co-culture with an osteoblast.
Tibia was aseptically ectomized from 6 to 8-week-old male ddY mice to harvest bone marrow cells by using a syringe (21G, Korea Green Cross). The bone marrow cells were suspended in 5 mL of an α-MEM medium (Gibco BRL Co., supplemented with sodium bicarbonate (2.0 g/L), streptomycin (100 mg/L) and penicillin ([…]), filtered and then sterilized). The harvested cells were centrifuged at 600×g for 5 minutes to collect the whole quantity. To remove the red blood cells in the bone marrow cells, 3 mL of Tris HCl (0.83% NH4Cl, pH 7.5) was added and well mixed. After centrifugation, the numbers of the eukaryotic cells in the harvested bone marrow cells were counted, and then immediately used for a co-culture system.
The progenitor bone and the parietal bone were aseptically ectomized from 1 to 2-day-old neonatal ICR mice, washed with a phosphate butter solution (PBS), and treated with a mixed enzyme solution (0.2% collagenase and 0.1% dispase) six to seven times (10, 10, 10, 20, 20 and 20 min), and then 3 to 6 groups of the cells, in which a large volume of cells having osteoblastic characteristics were contained, were intensively collected, and washed with medium (serum-free α-MEM). The washed cells were cultured in the α-MEM medium containing 10% FBS for 2 to 3 days. After sub-culturing, the collected cells were used for this experiment, and diluted to a concentration of 1×10^6 cells/mL for storage at −70° C.
The benzamidine derivative of the present invention was dissolved in a sterile distilled water or ethanol to be diluted to a desired concentration. The final volume of the sample added to the cell culture medium was set at a ratio of 1:1000.
The bone marrow cells prepared in the above 1-1 and the osteoblast were co-cultured. Both the bone marrow cells (25,000 cells/cm^2) and the osteoblast (10,000 cells/cm^2) were plated in a 96-well plate using α-MEM medium containing FBS, and then cultured with the samples to be tested for 7 days. Differentiation factors, such as dexamethasone (10^−7 M) and vitamin D (10^−8 M), were also co-added to the medium from the first day of cultivation. The medium was changed with a fresh media containing a mixture of the samples and the differentiation factors every 2 to 3 days.
TRAP was used as a marker to measure the matured osteoclast in consideration of its characteristics showing a positive reaction to a TRAP staining solution.
The TRAP staining solution was prepared in such the manner that 5 mg of naphthol AS-MS phosphate (sigma N-4875) as a substrate and 25 mg of a coloring agent (Fast Red Violet LB salt) were dissolved in N,N-dimethylformamide (about 0.5 mL). 50 ml of a 0.1 N […] buffer solution containing 50 mM tartaric acid (pH 5.0) was added thereto, and the mixture was stored in a refrigerator prior to use as a staining solution.
After culturing the cells for 7 days, the medium was removed from the wells, the cells were once washed with PBS, and then fixed with PBS containing 10% formalin for 2 to 5 min. The cells were fixed again in a mixed solution of ethanol and acetone (1/1) for about 1 min, and dried off. The cells were further treated by the TRAP staining solution for 15 minutes, and washed with water and dried off. The osteoclasts with 3 or more nuclei showing a TRAP-positive reaction were counted under a microscopic examination. Each of tests was confirmed at least three times. The inhibitory effect on osteoclast differentiation of each experimental group, relative to negative controls, was expressed as a percentage (%).

MC3T3-E1 = assay: Cytotoxicity test (MTT), MC3T3-E1; type: cell-based; details: 10^−6 M, cultured for 72 hrs, in comparison with the control group
Description: as §1, §2

[2] = 1 μm, 7 days co-culture, TRAP-positive osteoclasts with 3 or more nuclei, relative to negative controls

Compound | Cell survival rate (calvaria) | Cell survival rate (HOS) | inhibition at 1 µM [1] | Cell survival rate (MC3T3-E1) | inhibition at 1 µM [1, 2]
COCCN(CCOC)Cc1sc(N(C)CCN2CCOCC2)nc1-c1ccc(OCCCCCOc2ccc(C(=N)NO)cc2)cc1 [Example 30, N-hydroxy-4-[5-(4-{5-{[bis-(2-methoxy-ethyl)-amino]-methyl}-2-[methyl-(2-morpholin-4-yl-ethyl)-amino]-thiazol-4-yl}-phenoxy)-pentyloxy]-benzamidine] | 103% | 107% | 93% | 105% | –
CN(CCN1CCOCC1)c1nc(-c2ccc(OCCCCCOc3ccc(C(=N)NO)cc3)cc2)c(CN2CCOCC2)s1 [Example 28, N-hydroxy-4-[5-(4-{2-[methyl-(2-morpholin-4-yl-ethyl)-amino]-5-morpholin-4-ylmethyl-thiazol-4-yl}-phenoxy)-pentyloxy]-benzamidine] | 104% | 114% | – | 11% | 100%
N=C(NO)c1ccc(OCCCCCOc2ccc(-c3nc(-c4cccnc4)sc3N)cc2)cc1 [Example 47, N-hydroxy-4-{5-[4-(5-amino-2-pyridin-3-yl-thiazol-4-yl)-phenoxy]-pentyloxy}-benzamidine] | 99% | 112% | – | 97% | 86%
Cc1nc(-c2ccc(OCCCCCOc3ccc(C(=N)NO)cc3)cc2)c(-n2cncn2)s1 [Example 44, N-hydroxy-4-{5-[4-(2-methyl-5-[1,2,4]triazol-1-yl-thiazol-4-yl)-phenoxy]-pentyloxy}-benzamidine] | – | – | – | – | 68%
Cc1nc(-c2ccc(OCCCCCOc3ccc(C(=N)NO)cc3)cc2)c(NC(=O)c2ccncc2)s1 [Example 38, N-hydroxy-4-[5-(4-{2-methyl-5-[(pyridine-4-carbonyl)-amino]-thiazol-4-yl}-phenoxy)-pentyloxy]-benzamidine] | 94.6% | 117.6% | – | 100.0% | 78.6%
CNc1sc(C)nc1-c1ccc(OCCCCCOc2ccc(C(=N)NO)cc2)cc1 [Example 37, N-hydroxy-4-{5-[4-(2-methyl-5-methylamino-thiazol-4-yl)-phenoxy]-pentyloxy}-benzamidine] | 92.5% | 105.3% | – | 94.3% | 83.3%
CNc1nc(-c2ccc(OCCCCCOc3ccc(C(=N)NO)cc3)cc2)c(N2CCOCC2)s1 [Example 23, N-hydroxy-4-{5-[4-(2-methylamino-5-morpholin-4-yl-thiazol-4-yl)-phenoxy]-pentyloxy}-benzamidine] | 95.8% | 104.0% | – | 92.0% | 58.9%
Cc1nc(-c2ccc(OCCCCCOc3ccc(C(=N)NO)cc3)cc2)c(N)s1 [Example 46, N-hydroxy-4-{5-[4-(5-amino-2-methyl-thiazol-4-yl)-phenoxy]-pentyloxy}-benzamidine] | 95% | 106% | – | 90% | 88%
CN(Cc1ccncc1)c1nc(-c2ccc(OCCCCCOc3ccc(C(=N)NO)cc3)cc2)c(CN2CCOCC2)s1 [Example 24, N-hydroxy-4-(5-{4-[2-(methyl-pyridin-4-ylmethyl-amino)-5-morpholin-4-ylmethyl-thiazol-4-yl]-phenoxy}-pentyloxy)-benzamidine] | 95% | 112% | 100% | 86% | –
CCCNCc1sc(C)nc1-c1ccc(OCCCCCOc2ccc(C(=N)NO)cc2)cc1 [Example 16, N-hydroxy-4-{5-[4-(2-methyl-5-propylaminomethyl-thiazol-4-yl)-phenoxy]-pentyloxy}-benzamidine] | 95% | 100% | 100% | 92% | –
